From US20230219951A1, “PYRIDINE-PYRIMIDINE DERIVATIVE, PREPARATION METHOD THEREFOR AND PHARMACEUTICAL USE THEREOF” (Jiangsu Hengrui Pharmaceuticals Co., Ltd., priority 2020, published 2023)

Legend:
[1] = Pharmacokinetic evaluation in dogs; assay type: in vivo; settings: both sexes, dog, plasma, po, beagle dogs, intragastric administration, 2 mg/kg
Description: (§1) The drug concentration in the plasma of the test animals (dogs) at different time points after intragastric administration (i.g.) of compound 18-p1 was determined by using an LC/MS/MS method. The pharmacokinetic behavior in dogs of the compound of the present disclosure was studied and its pharmacokinetic profile was evaluated.
Four beagle dogs, half male and half female, fasted overnight, supplied by animal reserve bank (999M-004). All animals were beagle dogs qualified for physical examination and healthy without abnormalities.
An amount of compound 18-p1 was weighed and dissolved in 5% by volume of DMSO, 20% by volume of PG, and 20% by volume of PEG400, and then prepared into a 0.4 mg/mL clear solution with 55% normal saline.
The administration was performed at a dose of 2.0 mg/kg and a volume of 5.0 mL/kg.
The compound 18-p1 was administered intragastrically to dogs, and 1.0 mL of blood was collected from jugular vein or forelimb vein before administration and 0.25 h, 0.5 h, 1.0 h, 2.0 h, 4.0 h, 6.0 h, 8.0 h, 12.0 h and 24.0 h after administration. The blood was placed in an EDTA-K2 anticoagulation tube and centrifuged at 10,000 rpm for 5 min (4° C.), and plasma was separated out within 1 h and then stored at −80° C. for testing. The process from blood sampling to centrifugation was performed under an ice bath. Food intake was resumed 3 h after administration.
The content of the test compounds at different concentrations in plasma of dogs after administration was determined: 25 μL of plasma of dogs at each time point after administration was taken, and 200 μL of acetonitrile (containing 50 μL of internal standard solution camptothecin, 100 ng/mL) was added; the mixture was vortexed for 5 min, and centrifuged for 10 min (4000 r/min). 0.3 μL of supernatant was taken from the plasma sample for LC/MS/MS analysis.

H358 cells = experiment: Inhibition of proliferation of H358 cells (CellTiter-Glo 3D); assay type: cell-based; settings: Homo sapiens, NCI-H358, low adsorption plate, 120 h
Procedure, shortened: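 H358 cells at 1500/well in low-adsorption plates (RPMI, 10% FBS), centrifuged and grown overnight, then exposed 120 h at 37 °C to 9 concentrations, 5-fold dilutions from 10 μM; 0.1% DMSO blank. Luminescence read with CellTiter-Glo 3D; IC50 calculated from the curves.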

[2] = Pharmacokinetic evaluation in mice; assay type: in vivo; settings: female, mouse, plasma, po, C57 mice, intragastric administration, 2 mg/kg
Description: as §1, with “(mice)” for “(dogs)”, “behavior” for “behavior in dogs”, “disclosure in mice” for “disclosure”
Nine C57 mice, female, purchased from Beijing Vital River Laboratory Animal Technology Co., Ltd., with animal production license number of SOCK (Shanghai) 2017-0005.
An amount of compound 18-p1 was weighed, dissolved with 5% by volume of DMSO and 5% tween 80 (Shanghai Titan Scientific Co., Ltd.), and then prepared into a 0.1 mg/mL clear solution with 90% normal saline.
Intragastric administration: the mice were intragastrically administered at a dose of 2.0 mg/kg and a volume of 20.0 mL/kg.
The compound 18-p1 was administered intragastrically to mice, and 0.1 mL of blood was collected from the orbit before administration and 0.25 h, 0.5 h, 1.0 h, 2.0 h, 4.0 h, 6.0 h, 8.0 h, 11.0 h and 24.0 h after administration. The blood was placed in an EDTA-K2 anticoagulation tube and centrifuged at 10,000 rpm for 1 min (4° C.), and plasma was separated out within 1 h and then stored at −20° C. for testing. The process from blood sampling to centrifugation was performed under an ice bath.
The content of the test compounds at different concentrations in plasma of mice after administration was determined: 10 μL of plasma of mice at each time point after administration was taken, and 200 μL of methanol (containing an internal standard solution camptothecin, 100 ng/mL) was added; the mixture was vortexed for 1 min, and centrifuged for 10 min (18,000 r/min). 3 μL of supernatant was taken from the plasma sample for LC/MS/MS analysis.

[3] = read-out: Apparent distribution volume Vz/F
[4] = read-out: Area under curve AUC0-t
[5] = read-out: Half-life T½ (converted)
[6] = read-out: Plasma concentration Cmax

Vd/F [1, 3]: 2.63 L/kg
AUC(0-t) [1, 4]: 4600 ng·h/mL
CL/F ([1]; read-out: Clearance CLz/F): 7.64 mL/min/kg
half-life [1, 5]: 3.91 h
Cmax [1, 6]: 710 ng/mL
IC50 (H358 cells): 72 nM
Vd/F [2, 3]: 23.4 L/kg
AUC(0-t) [2, 4]: 146 ng·h/mL
CL/F ([2]; read-out: Clearance CLz/F): 225 mL/min/kg
half-life [2, 5]: 1.2 h
Cmax [2, 6]: 56.7 ng/mL
Compound: Cc1nc(N[C@H](C)c2cccc(C(F)F)c2F)c2cc([C@]3(O)CC[C@@H](O)CC3)c(=O)[nH]c2n1 [Example 18-p1, 4-(((R)-1-(3-(difluoromethyl)-2-fluorophenyl)ethyl)amino)-6-((1s,4S)-1,4-dihydroxycyclohexyl)-2-methylpyrido[2,3-d]pyrimidin-7(8H)-one]
